Values after ≈ are worked out from the molar mass of the structure shown.
Tests used:
[1] = Solubility of compound A in various solvents (standard solubility determination); format: physicochemical; settings: organic solvent or mixture, 25 °C
Protocol: The solubility (25 °C) of the active ingredient compound A in various solvents was determined using a standard solubility determination method well known in the art.

[2] = Solubility of compound A in aqueous buffer; format: physicochemical; settings: pH 1.2, aqueous buffer, thermodynamic from solid, pH of 1.2 to 7.4, 37 °C/24 h
Description: The starting material of compound A is an anhydrous crystal powder with slight hygroscopicity, which is almost insoluble in water. […] For such drugs with poor water solubility, the dissolution of the drugs in gastrointestinal fluids is the rate-limiting step of their bioavailability, and poor water solubility will necessarily lead to low dissolution and thus lower bioavailability. Therefore, if the bioavailability of the drug is to be improved, the dosage form, formula composition, and process need to be specially designed to change the dispersion state of the drug and promote its dissolution in the gastrointestinal tract.

solubility ([1]; Acetonitrile): 1.2 mg/mL (≈ 2.28 mM)
solubility ([1]; DMF): 33 mg/mL (≈ 62.7 mM)
solubility ([1]; DMSO): 33 mg/mL (≈ 62.7 mM)
solubility ([1]; Dichloromethane): 10 mg/mL (≈ 19 mM)
solubility ([1]; Ethanol): 1.1 mg/mL (≈ 2.09 mM)
solubility ([1]; Methanol: dichloromethane (1:1)): 28.5 mg/mL (≈ 54.1 mM)
solubility ([1]; Methanol: dichloromethane (1:2)): 50 mg/mL (≈ 95 mM)
solubility ([1]; Methanol: dichloromethane (1:3)): 83 mg/mL (≈ 158 mM)
solubility ([1]; Methanol: dichloromethane (1:4)): 83 mg/mL (≈ 158 mM)
solubility ([1]; Methanol: dichloromethane (1:5)): 83 mg/mL (≈ 158 mM)
solubility ([1]; Methanol: dichloromethane (2:1)): 14.3 mg/mL (≈ 27.2 mM)
solubility ([1]; Methanol: dichloromethane (3:1)): 7.7 mg/mL (≈ 14.6 mM)
solubility ([1]; Methanol): 4.3 mg/mL (≈ 8.17 mM)
solubility ([1]; N-methylpyridine): 11 mg/mL (≈ 20.9 mM)
solubility ([1]; Tetrahydrofuran): 2 mg/mL (≈ 3.8 mM)
solubility ([1]; Toluene): 3.3 mg/mL (≈ 6.27 mM)
solubility at 24 h [2]: 0.08 to 0.39 µg/mL (≈ 0.000152 to 0.000741 mM)
Compound: CC(C)N1Cc2cc(C(F)(F)F)ncc2-c2cnc(NCc3c(F)ccc4c3CCO4)n3cnc(c23)C1=O [compound A, 12-(((5-fluoro-2,3-dihydrobenzofuran-4-yl)methyl)amino)-4-isopropyl-7-(trifluoromethyl)-4,5-dihydro-3H-2,4,8,11,12a-pentaazabenzo[4,5]cycloocta[1,2,3-cd]inden-3-one]
